Reference: ChEMBL document CHEMBL2094269, “WEHI/Eskitis Trypanosoma b. brucei screening data”

Tests used:
[1] = DNDI: Cytotoxicity against human MRC-5 lung fibroblast cells.; conditions: IC50
[2] = tested on: Trypanosoma brucei brucei; assay: microbe, parasite or virus in culture; assay type: functional, organism-based, STIB 795
Description: DNDI: Inhibition of Human African Trypanosomiasis (HAT), STIB 795, in vitro

Structure (SMILES) | IC50 [1] | IC50 ([2]; Trypanosoma brucei, STIB 795) | IC50 [2]
CNCCCC1Sc2ccccc2Oc2ccccc21 (stereo not drawn) | > 41.7 µM | 4.7 µM | –
COc1ccc(C(=O)O/N=C(\N)c2ccccn2)c(OC)c1 | > 20.8 µM | 4.49 µM | –
CCOC(=O)c1ccc(Nc2nnc(C(C)(C)C)c(O)n2)cc1 | > 41.7 µM | 10.2 µM | –
COc1ccccc1NC(=O)c1cc(Cl)nnc1Cl | > 20.8 µM | 5.44 µM | –
Cc1ccc(C(=O)O/N=C(\N)Cc2cccs2)c(Cl)c1 | > 41.7 µM | 0.768 µM | –
COCc1cc(O)nc(Nc2nc3ccc(C)cc3o2)n1 | > 20.8 µM | 5.16 µM | –
Cc1ccc2[nH]c(/C(C#N)=C/c3ccc(O)c(O)c3)nc2c1 | > 20.8 µM | 1.51 µM | –
CCOC(=O)C(=Cc1cc(=O)c(OC)co1)C(=O)OCC | > 20.8 µM | 5.5 µM | –
Cn1c(Cl)cnc1C1CC(=O)c2cc(Cl)ccc2O1 (stereo not drawn) | > 41.7 µM | 0.81 µM | –
N=C(NOC(=O)C12CC3CC(CC(C3)C1)C2)c1ccccc1 | > 20.8 µM | 0.322 µM | –
NC(=NOC(=O)c1cccc2ccccc12)c1ccccn1 | > 20.8 µM | 3.58 µM | –
CCCC(=O)Nc1ccc(Cl)c(-c2nc3ncccc3o2)c1 | > 41.7 µM | 0.851 µM | –
CN(C)c1ccc(/C=C/c2cc[n+](C)c3ccccc23)cc1 | > 2.08 µM | 0.038 µM | –
CC[n+]1c(/C=C/c2c[nH]c3ccccc23)ccc2cc(C)ccc21 | 3.71 µM | 0.294 µM | –
NCCc1c(-c2ccccc2)n(-c2ccccc2)c2ccccc12 | > 20.8 µM | 1.49 µM | –
CCN(CC)c1ccc(/C=N/NC(=O)c2cccs2)c(O)c1 | > 41.7 µM | 12.6 µM | –
Cc1cccc2cc(-c3ccccc3)c(N3CCNCC3)nc12 | > 4.17 µM | 1.45 µM | –
CC(C)=CC1C(C(=O)O/N=C(\N)c2ccccc2)C1(C)C (stereo not drawn) | > 41.7 µM | 1.16 µM | –
CC(C)Cc1ccc(C(C)C(=N)NC2CCCCC2)cc1 (stereo not drawn) | > 20.8 µM | 5.45 µM | –
C=CC[n+]1ccc(/C=C/c2ccccc2O)c2ccccc21 | > 41.7 µM | 5.28 µM | –
O=C(CNc1ccc(Cl)cc1)N/N=C/c1cccnc1 | > 4.17 µM | 1.75 µM | –
C/C(=N\NC(=O)c1cccc2ccccc12)c1ccccn1 | > 4.17 µM | 2.34 µM | –
COc1ccc(CCON2C(N)=NC(N)=NC2(C)C)cc1 | > 4.17 µM | ≤ 3.11 µM | –
O=C(N/N=C/c1cc(Cl)ccc1O)c1ccc(F)cc1 | > 20.8 µM | ≤ 10.4 µM | –
CN(C)CCCOC1=Cc2ccccc2Cc2ccccc21 | > 41.7 µM | 6.6 µM | –

Structure (SMILES) | IC50 [1] | IC50 ([2]; Trypanosoma brucei, STIB 795) | IC50 [2]
Cc1cccc(NC(=O)Cn2cc(CO)c3ccccc32)c1 | > 4.17 µM | 5.39 µM | –
C1=C(N2CCNCC2)c2ccccc2Sc2ccccc21 | > 20.8 µM | 3.16 µM | –
CCN(CC)c1ccc(C2N(C)c3ccccc3N2C)cc1 | > 41.7 µM | 2.49 µM | –
C[n+]1ccccc1C=C1C=CN(c2ccc(Cl)cc2)C=C1 | > 4.17 µM | 0.028 µM | –
COc1ccc(C(C)(C)C#Cc2c(C)nc(N)nc2N)cc1 | > 4.17 µM | ≤ 3.48 µM | –
Nc1nonc1C(=O)N/N=C/c1c(O)ccc2ccccc12 | > 4.17 µM | 5.33 µM | –
CC(C)(C)c1ccc(C(=O)O/N=C(\N)c2ccncc2)cc1 | > 41.7 µM | 0.95 µM | –
CCCC[n+]1cc(-c2ccccc2)nc(N2CCCCC2)n1 | > 41.7 µM | 7.6 µM | –
CNCCCC1Sc2ccccc2C(C)c2ccccc21 (stereo not drawn) | > 20.8 µM | 4.88 µM | –
O=C1c2cccc3c(N4CCOCC4)ccc(c23)C(=O)N1O | > 41.7 µM | 8.03 µM | –
O=C1/C(=C/c2ccccc2)CCS(=O)(=O)c2ccccc21 | > 41.7 µM | 5.55 µM | –
CC(=O)NC(c1cccs1)c1ccc2cccnc2c1O (stereo not drawn) | 0.984 µM | 0.924 µM | –
COc1ccc2c(c1)S/C(=C/C(=O)c1ccncc1)N2C | > 41.7 µM | 5.01 µM | –
COc1ccc(OCC(=O)N/N=C(\C)c2ccccn2)cc1 | > 20.8 µM | 5.26 µM | –
O=C(Nc1c2ccccc2nc2ccccc12)c1ccncc1 | 5.82 µM | 1.2 µM | –
O=S(=O)(Nc1cccc2cccnc12)c1ccccc1O | > 10.4 µM | 0.521 µM | –
CCc1ccccc1-n1c(=O)oc2ccc(Cl)cc2c1=O | > 4.17 µM | 5.13 µM | –
O=C(/C=C/c1ccccc1)ONC(=O)c1ccc(Cl)cc1 | > 20.8 µM | 4.45 µM | –
Cc1oc2c(O)c(O)ccc2c(=O)c1Oc1ccccc1F | > 41.7 µM | 0.133 µM | –
NCCNCCC=C(c1ccc(F)cc1)c1ccc(F)cc1 | > 20.8 µM | 0.265 µM | –
COc1cc(OC)nc(-n2ncc(Cl)c(Cl)c2=O)n1 | 4.53 µM | 5.32 µM | –
Cn1c2ccccc2c2nnc(N/N=C/c3ccccn3)nc21 | > 1.04 µM | 0.52 µM | –
Cc1cc(C)[n+]2nc3n(-c4ccccc4)c(C)cc(C)c-3c2n1 | > 41.7 µM | 4.46 µM | –
CCOC(=O)c1cnc2c(OC)cccc2c1NCCCO | > 41.7 µM | 8.61 µM | –
CCn1c(Cc2nc3ccccc3n2CC)nc2ccccc21 | > 41.7 µM | 3.87 µM | –

Structure (SMILES) | IC50 [1] | IC50 ([2]; Trypanosoma brucei, STIB 795) | IC50 [2]
COc1ccc(/C(N)=N/OC(=O)c2ccccc2Cl)cc1 | > 20.8 µM | 1.21 µM | –
Clc1cc2c(c3ncccc13)OCN(CC1CCCO1)C2 (stereo not drawn) | 6.72 µM | 6.81 µM | –
NCCCCCOC(c1ccc(F)cc1)c1ccc(F)cc1 | > 41.7 µM | 5.53 µM | –
CN(C)c1ccc(/C=C/c2cc(-c3ccccc3)o[n+]2C)cc1 | > 2.08 µM | 0.133 µM | –
C(=C\c1ccc(OC2CN3CCC2CC3)cc1)/c1ccccc1 (stereo not drawn) | > 41.7 µM | 5.31 µM | –
Cc1ccc(Nc2cc(C)nc3c(C)c(C)cc(N)c23)c(C)c1 | > 41.7 µM | 5.12 µM | –
CC(=O)NC(c1ccccc1C)c1ccc2cccnc2c1O (stereo not drawn) | > 1.04 µM | 0.655 µM | –
O=C1C=C/C(=N\Nc2ccc3c(c2)OCCO3)c2cccnc21 | > 20.8 µM | 1.43 µM | –
CN(C)CCCC1(O)c2ccccc2C2(CC2)c2ccccc21 | > 10.4 µM | 0.436 µM | –
O=C(/C=C/c1ccccc1Cl)Nc1ccc2ccccc2c1 | > 41.7 µM | 6.12 µM | –
NCC(c1ccc(Cl)cc1)c1ccc(-c2ccccc2)cc1 (stereo not drawn) | > 41.7 µM | 4.59 µM | –
C/C(=N\NC(=O)c1ccc(Cl)c(Cl)c1)c1ccccn1 | > 41.7 µM | 5.16 µM | –
Cc1cc(C)n(-c2ccc3c(Cl)cc(Cl)c(O)c3n2)n1 | > 41.7 µM | 4.79 µM | –
COc1ccc(/C(N)=N/OC(=O)N2CCOCC2)cc1OC | > 20.8 µM | 2.98 µM | –
NCC12CC3CC(C1)CC(c1ccc(Cl)c(Cl)c1)(C3)C2 | > 41.7 µM | 2.54 µM | –
CCOC(=O)N/N=C1/c2ccccc2-c2nc3nonc3nc21 | > 20.8 µM | 0.8 µM | –
CCOC(=O)c1nc[nH]c1/N=N/c1ccc(O)c2ccccc12 | 3.83 µM | 0.927 µM | –
Fc1ccc(C(=CCCn2ccnc2)c2ccc(F)cc2)cc1 | 7.02 µM | 0.327 µM | –
C/C(=N\NC(=O)CCCNc1cccc(C)c1)c1ccccn1 | > 10.4 µM | 3.96 µM | –
CCc1cc(OCCCCCN2CCNCC2)ccc1Cl | > 20.8 µM | 0.807 µM | –
N#CC1=C(N)Oc2[nH]nc(C(F)(F)F)c2C1c1cccs1 (stereo not drawn) | > 41.7 µM | 5.51 µM | 5.41 µM
O=C1/C(=C\c2ccccc2F)COC/C1=C\c1ccccc1F | > 41.7 µM | 1.6 µM | –
CCc1ccccc1Nc1nc(-c2ccc(O)cc2O)cs1 | > 41.7 µM | 3.63 µM | –
COc1nccnc1N/N=C/c1cc(Cl)cc(Cl)c1O | > 20.8 µM | 5.19 µM | –
N=C(N)N/N=C(\c1ccc(Cl)cc1)c1ccc(Cl)s1 | > 4.17 µM | ≤ 2.46 µM | –

Structure (SMILES) | IC50 [1] | IC50 ([2]; Trypanosoma brucei, STIB 795) | IC50 [2]
N/C(Cc1cccc2ccccc12)=N\OC(=O)N1CCOCC1 | > 20.8 µM | 0.604 µM | –
Cc1ccc(NCC(=O)N/N=C/c2c(C)cc(O)cc2O)cc1 | > 20.8 µM | 5.37 µM | –
CCn1c(=N)n(CCCOc2ccc(F)cc2)c2ccccc21 | > 20.8 µM | 5.46 µM | –
Cc1ccc(-n2nnnc2CNC(=O)c2cccs2)cc1C | > 41.7 µM | 5.85 µM | –
C[n+]1ccc(/C=C/c2c[nH]c3ccc(Br)cc23)cc1 | > 4.17 µM | 5.26 µM | –
Cc1ccccc1/N=N/C(=N\Nc1ccccc1)c1ccccc1 | > 41.7 µM | 1.64 µM | –
O=C(NCCCN1CCCC1)c1ccc(-c2ccccc2)s1 | > 20.8 µM | 5.51 µM | –
Cc1cc(C)c2nc(C)cc(Nc3ccc(O)cc3)c2c1 | > 20.8 µM | 2.95 µM | –
Cc1cc(C)c2nc(C)cc(Nc3cccc(O)c3)c2c1 | > 20.8 µM | 4.93 µM | –
CCCCC1=NN(C(=O)c2ccccn2)C(O)(C(F)(F)F)C1 (stereo not drawn) | > 20.8 µM | 5.4 µM | –
Oc1c(/N=N/c2ccc3cccc(O)c3n2)ccc2ccccc12 | > 20.8 µM | 3.87 µM | –
CC(C)NCC(O)COc1cc2ccsc2c2ccccc12 (stereo not drawn) | 7.53 µM | 1.54 µM | –
O=C(Nc1c2ccccc2nc2ccccc12)c1ccccc1F | > 4.17 µM | 5.31 µM | –
CC(C)OCc1cc(CN2CCOCC2)c(O)c2ncccc12 | 0.91 µM | 0.498 µM | –
Clc1ccc(OCCCCCN2CCNCC2)c(Cl)c1 | > 41.7 µM | 3.57 µM | –
Cn1c(-c2cccnc2)nn(C2CC(=O)C3OCC2O3)c1=S (stereo not drawn) | > 20.8 µM | 2.32 µM | –
N/C(Cc1cccs1)=N\OC(=O)C12CC3CC(CC(C3)C1)C2 | > 20.8 µM | 0.125 µM | –
CC[n+]1c(/C=C/c2ccc(N(C)C)cc2)ccn1-c1ccccc1 | > 20.8 µM | 0.536 µM | –
CCN(CC)c1ccc(/C=N/NC(=O)c2ccncc2)c(O)c1 | > 4.17 µM | 3.82 µM | 7.34 µM
CCN1CCCC(Nc2ccnc3cc4ccccc4cc23)C1 (stereo not drawn) | 4.95 µM | 0.275 µM | –
COc1ccc2c(c1)C(=NN=C(N)N)c1cc(OC)ccc1-2 | > 41.7 µM | 4.23 µM | –
NC1c2ccccc2CC1Cc1ccc(Cl)cc1Cl (stereo not drawn) | > 20.8 µM | 5.23 µM | –
CN1/C(=C/C=C/c2oc3ccccc3[n+]2C)Oc2ccccc21 | > 2.08 µM | 0.253 µM | –
